How the values were obtained:
[1] = Nitrogen gas substitution test: DHNA content during preservation of DHNA-containing vegetable drink; assay type: physicochemical; conditions: vegetable drink with ascorbic acid; nitrogen bubbled until dissolved oxygen 5 ppm; pasteurized 140° C. 3 seconds; ordinary temperature (25° C.) preservation, 2 months
Protocol: (§1) A 5 ml portion of each sample was passed through a solid phase extraction column (Oasis HLB, manufactured by Waters Corporation) conditioned with 5 ml of methanol and 4 ml of 1% (w/v) sodium ascorbate aqueous solution. After washing with 5 ml of an aqueous solution of 1% (w/v) sodium ascorbate and elution with 4 ml of an aqueous solution of 10% (w/v) sodium ascorbate/methanol (1:9), the thus obtained eluate was concentrated under reduced pressure. A 1 ml portion thereof was sampled and filled up with the aforementioned sodium ascorbate-containing methanol. The mixture was filtered through a 0.5 μm filter and subjected to HPLC (column: Cadenza CD-C18 (4.6×150 mm, manufactured by Imtact Corporation), mobile phase: acetonitrile, methanol, water and acetic acid (10:20:200:0.1, vol/vol/vol/vol, adjusted to pH 7 with aqueous ammonia), detector: UV detector, detection wavelength: 254 nm, flow rate: 1.5 ml/min, column temperature: 45° C., sample injection: 20 μl). A calibration curve was prepared by preparing a 1 mg/ml (methanol solution) standard stock solution of a DHNA preparation (046-22422, manufactured by Wako Pure Chemical Industries, Ltd.) and using the solution after optionally diluting with methanol. […]

[2] = Nitrogen gas substitution test: DHNA content during preparation and preservation of DHNA-containing plain yogurt; assay type: physicochemical
Protocol: as §1, with “μl).” for “μl). A calibration curve was prepared by preparing a 1 mg/ml (methanol solution) standard stock solution of a DHNA preparation (046-22422, manufactured by Wako Pure Chemical Industries, Ltd.) and using the solution after optionally diluting with methanol.”
The DHNA content contained in the plain yogurt was measured in accordance with the aforementioned test example, at respective steps of before pasteurization of the mix, after pasteurization of the same, just after inoculation of the bulk starter and completion of the fermentation, and after the lapse of the preservation for 1 week and 2 weeks, according to the production of plain yogurt of this Example.

DHNA content after heat pasteurization in comparison with the content before heat pasteurization ([2]; control plain yogurt mix without nitrogen gas bubbling (dissolved oxygen about 10 ppm), heating at 95° C. for 5 minutes): about 30%
loss of DHNA during the preparation and preservation ([2]; plain yogurt mix bubbled with nitrogen gas (dissolved oxygen less than 1 ppm), pasteurized 95° C. 5 minutes, fermented 43° C. 4 hours, preserved in the dark at 10° C. for 2 weeks): almost completely inhibited
SMILES: O=C(O)c1cc(O)c2ccccc2c1O [DHNA, 1,4-dihydroxy-2-naphthoic acid]
reduction of the DHNA content during preservation [1]: can be inhibited for a prolonged period of time

Reference: US8277860B2, “Method of stabilizing 1,4-dihydroxy-2-naphthoic acid” (Meiji Co., Ltd., priority 2003, dated 2012)
